Measured values reported in patent US20090252673A1, “Methods of Making and Using Rubidium-81-Containing Compositions” (priority 2006, published 2009).

Test system: occlusion/reperfusion rat heart model
Assay: Ex vivo dual tracer autoradiography, Tl-201 and Rb-81 redistribution kinetics
Type: in vivo, rats
Details: 20 μm heart slices, phosphor-imager ROIs
Experimental: Three additional rats were simultaneously injected with 20 MBq Rb-81 and 2.7 MBq Tl-201. After the occlusion/injection/reperfusion procedure was completed (see FIG. 8), the animals were sacrificed at 0, 15 and 45 min after initiating the reperfusion.
After the hearts of the animals were removed and freshly frozen in liquid nitrogen, they were sliced into short axis 20 μm slices. Radioactivity in the tissues sections was determined by using a phosphor-imager. Rb-81 was measured over a period of 3 h directly after preparation of the slices, whereas the Tl-201 activity was determined after the Rb-81 activity was almost completed (Rb-81: t1/2=4.58 h versus a 4 day decay period).
Quantitative evaluations were carried out by comparison of the detected counts within regions-of-interest in both, normal tissue areas and occluded tissues areas. Comparisons are given in percent of normal heart tissue.

Structure (SMILES): [201Tl] [Tl-201, reference compound]
- activity in occluded areas, percent of the uptake in normal tissues (0 min p.i.): 5%
- activity in occluded areas, percent of the uptake in normal tissues (15 min p.i.): 28%
- activity in occluded areas, percent of the uptake in normal tissues (45 min p.i.): 58%
